Data taken from US8754190B2, “Controlled release from macromolecular conjugates” (Prolynx LLC, priority 2010, dated 2014).

Assays:
[1] = pH 7.4
Method: Kinetics for release of N-(6-(2,4-dinitrophenyl)aminohexanoyl)-serine from O—(N-(9-fluorenylmethoxycarbonyl-N-phenyl)aminomethyl)-serine in 0.1 M HEPES buffer, 15 mM NaCl, pH 7.40, 37° C. are shown in FIG. 4.

[2] = pH 7.4; remark: listed apart in the source
[3] = Release of Nε-2,4-dinitrophenyl-L-lysine from model linker carbamates (β-eliminative cleavage), HPLC; format: physicochemical; settings: after 5 days at 37° C. and pH 7.4; no observable release, below estimated detection limit
Method: A series of model linker scaffolds having a range of functional groups as potential pKa modulators (substituted aromatics, ketones, nitriles, sulfones) were designed, prepared and linked via carbamate bonds to Ne-2,4-dinitrophenyl-L-lysine (Ne-DNP-Lys) for evaluation of release rates. DNP-Lys was chosen as the released moiety as it is water soluble and is a strong chromophore to permit HPLC-UV analysis.
The rates of release of Nε-2,4-dinitrophenyl-L-lysine from these compounds were determined at pH 7.4 or pH 8.3, 37° C., by HPLC analysis. Kinetic analyses of the release reactions were performed by HPLC (C18; linear methanol/water+0.5% HOAc gradient) using a UV/vis monitor at 350 nm. The areas under the Lys(DNP) (“P”) and starting material (“S”) peaks were integrated to determine extent of reaction (“R”) as R=P/(S+P). Reaction rates were calculated from the slope the line obtained by linear regression analysis of a plot of ln(1−R) versus time.

[4] = Hydrolysis of carbamate in 50% human serum; format: in vitro ADME; settings: after 1 week at 37° C.
From the text: In general, compared to C—H, a) electron withdrawing groups at the beta position increase the rate; b) alkyl groups at the alpha position increase the rate; and c) aryl moieties at the alpha position decrease the rate.

**Q.** Which “T1/2 of release of N-(6-(2,4-dinitrophenyl)aminohexanoyl)-serine” value [1] does the source give for `O=C(CCCCCNc1ccc([N+](=O)[O-])cc1[N+](=O)[O-])N[C@@H](COCN(C(=O)OCC1c2ccccc2-c2ccccc21)c1ccccc1)C(=O)O` [Example 11B] here?
**A.** 16.7 days

**Q.** With `O=C(O)[C@H](CSCN(C(=O)OCC1c2ccccc2-c2ccccc21)c1ccccc1)Nc1ccc([N+](=O)[O-])cc1[N+](=O)[O-]` [Example 11C, S—(N-(9-Fluorenylmethoxycarbonyl-N-Phenylamino)Methyl)N-(2,4-Dinitrophenyl)-Cysteine] as the molecule, how does the “T1/2 of release of N-(2,4-dinitrophenyl)-cysteine” value [2] read?
**A.** 4.17 days

**Q.** Which results are given for `O=C(N[C@@H](CCCCNc1ccc([N+](=O)[O-])cc1[N+](=O)[O-])C(=O)O)OCc1ccccc1` [O-benzyl-N—(Nε-2,4-dinitrophenyl-L-lysine)-carbamate]?
**A.** release of Nε-2,4-dinitrophenyl-L-lysine (cleavage) [3]: < 0.25%; hydrolysis in 50% human serum [4]: no detectable hydrolysis
